Patent publication US20040106545A1, “Compounds and methods for modulating cell adhesion” (priority 1996, published 2004)
Entries after “also recorded” stand apart in the source; their conditions may differ.

Columns and labels:
[1] = Cytotoxicity, MTT assay, PC-3; type: cell-based, human; details: human, MTT assay, read-out: PC-3 Cytotox (IC50)
Procedure, shortened: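 Human primary endothelial cells, fibroblast lines (IAFp2, WI-38) and cancer lines (MDA-MB231, PC-3) receive the CHAVC peptide or the CHGVC control at ≤100 μM. Viability is scored by MTT and DNA synthesis by ^3H-thymidine uptake.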

N-cadherin = target: T1, N-cadherin (Gallus gallus, UniProt P10288); assay: Neurite outgrowth of mouse cerebellar neurons on N-cadherin expressing 3T3 monolayers (Example 2); type: cell-based
T1 construct: expressed in transfected cells; host or cells: 3T3 fibroblasts (monolayer)
T1 sequence (P10288 165-912): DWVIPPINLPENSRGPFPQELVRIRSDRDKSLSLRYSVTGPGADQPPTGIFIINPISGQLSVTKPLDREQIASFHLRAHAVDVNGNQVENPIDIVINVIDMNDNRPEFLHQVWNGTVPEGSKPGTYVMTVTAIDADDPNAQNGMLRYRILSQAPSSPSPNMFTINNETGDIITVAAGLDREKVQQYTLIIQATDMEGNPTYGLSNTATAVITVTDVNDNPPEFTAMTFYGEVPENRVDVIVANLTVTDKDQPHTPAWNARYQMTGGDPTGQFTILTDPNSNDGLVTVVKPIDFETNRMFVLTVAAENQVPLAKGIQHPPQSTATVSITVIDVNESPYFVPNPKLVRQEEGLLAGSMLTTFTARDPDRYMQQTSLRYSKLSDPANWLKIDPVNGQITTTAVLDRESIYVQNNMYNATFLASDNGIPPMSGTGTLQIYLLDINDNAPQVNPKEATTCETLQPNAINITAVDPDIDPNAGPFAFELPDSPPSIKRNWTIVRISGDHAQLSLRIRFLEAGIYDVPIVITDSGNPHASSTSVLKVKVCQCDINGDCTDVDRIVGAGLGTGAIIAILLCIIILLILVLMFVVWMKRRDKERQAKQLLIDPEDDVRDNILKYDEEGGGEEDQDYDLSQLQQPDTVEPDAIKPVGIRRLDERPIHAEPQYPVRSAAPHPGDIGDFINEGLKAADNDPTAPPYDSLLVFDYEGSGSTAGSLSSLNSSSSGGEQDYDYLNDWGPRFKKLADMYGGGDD
From the text: Within a representative neurite outgrowth assay, neurons may be cultured on a monolayer of cells (e.g., 3T3) that express N-cadherin. […] For example, neurons may be cultured on monolayers of 3T3 cells transfected with cDNA encoding N-cadherin essentially as described by Doherty and Walsh, Curr. Op. Neurobiol. 4:49-55, 1994; Williams et al., Neuron 13:583-594, 1994; Hall et al., Cell Adhesion and Commun. 3:441-450, 1996; Doherty and Walsh, Mol. Cell. Neurosci. 8:99-111, 1994; and Safell et al., Neuron 18:231-242, 1997. Briefly, monolayers of control 3T3 fibroblasts and 3T3 fibroblasts that express N-cadherin may be established by overnight culture of 80,000 cells in individual wells of an 8-chamber well tissue culture slide. 3000 cerebellar neurons isolated from post-natal day 3 mouse brains may be cultured for 18 hours on the various monolayers in control media (SATO/2% FCS), or media supplemented with various concentrations of the modulating agent or control peptide. The cultures may then be fixed and stained for GAP43 which specifically binds to the neurons and their neurites. The length of the longest neurite on each GAP43 positive neuron may be measured by computer assisted morphometry.
Neurons were cultured on monolayers of 3T3 cells transfected with cDNA encoding N-cadherin essentially as described by Doherty and Walsh, Curr. Op. Neurobiol. 4:49-55, 1994; Williams et al., Neuron 13:583-594, 1994; Hall et al., Cell Adhesion and Commun. 3:441-450, 1996; Doherty and Walsh, Mol. Cell. Neurosci. 8:99-111, 1994; Safell et al., Neuron 18:231-242, 1997. Briefly, monolayers of control 3T3 fibroblasts and 3T3 fibroblasts that express N-cadherin were established by overnight culture of 80,000 cells in individual wells of an 8-chamber well tissue culture slide. […] The length of the longest neurite on each GAP43 positive neuron was then measured by computer assisted morphometry.

Melanoma ME115 cells = assay: Disruption of melanoma cell adhesion, pan-cadherin staining; type: cell-based, human; details: 500 μg/mL, 48 hours
Description: Melanoma ME115 cells (kindly provided by Meenhard Herlyn, Wistar Institute, Philadelphia, Pa.) were plated on glass coverslips and cultured for 24 hours in 50% keratinocyte growth medium (Clonetics, San Diego, Calif.) and 50% L15. Fresh medium containing the cyclic peptides (final concentration 500 μg/mL media) N—Ac-CHAVC-NH2 (SEQ ID NO:10) or N—Ac-CHGVC-NH2 (SEQ ID NO:11) was then added. Following 24 hours of culture in the presence of the peptides, the medium was removed and fresh medium containing the peptides was added. The cells were fixed 24 hours later with cold methanol and stored in phosphate buffered saline (PBS).
Coverslips were blocked for 1 hour in 3% ovalbumin/PBS and incubated for a further 1 hour in the presence of rabbit pan-cadherin antibody (Sigma Chemical Co., St. Louis, Mo.) diluted 1:500. Primary and secondary antibodies were diluted in PBS containing 6% normal goat serum. Following incubation in the primary antibody, coverslips were washed 3 times for 5 minutes each in PBS and incubated for 1 hour in goat anti-rabbit immunoglobulin G conjugated to fluorescein (Kiekegard and Perry, South San Francisco, Calif.) diluted 1:100. Following a further wash in PBS (3×5 minutes) coverslips were mounted in Vectashield (Vector Labs, Burlingame, Calif.) and viewed with a Zeiss infinity corrected microscope.

[2] = Cytotoxicity, MTT assay, HMVEC; type: cell-based; details: human, HMVEC (human microvascular endothelial cells), read-out: HMVEC Cytotox (IC50)
Description: N—Ac-CHAVC-NH2 (SEQ ID NO:10) and the control peptide N—Ac-CHGVC-NH2 (SEQ ID NO:11) were evaluated for possible cytotoxic effects on human microvascular endothelial (HMVEC; Clonetics), human umbilical vein endothelial (HUVEC; ATCC #CRL-1730), IAFp2 (human fibroblast cell line; Institute Armand-Frapier, Montreal, Quebec), WI-38 (human fibroblast cell line; ATCC #CCL-75), MDA-MB231 (human breast cancer cell line; ATCC #HTB-26), and PC-3 (human prostate cancer cell line; ATCC #CRL-1435) cells utilizing the MTT assay (Plumb et al., Cancer Res. 49:4435-4440, 1989). Neither of the peptides was cytotoxic at concentrations up to and including 100 μM. Similarly, neither of the peptides was capable of inhibiting the proliferation of the above cell lines at concentrations up to 100 μM, as judged by ^3H-thymidine incorporation assays.

[3] = test system: 3T3 cells not expressing N-cadherin, N-CAM, or L1 (control cells); assay: Neurite outgrowth on control 3T3 monolayers (Example 2); type: cell-based, mouse; details: 500 μg/ml
Description: Neurons were cultured on monolayers of 3T3 cells transfected with cDNA encoding N-cadherin essentially as described by Doherty and Walsh, Curr. Op. Neurobiol. 4:49-55, 1994; Williams et al., Neuron 13:583-594, 1994; Hall et al., Cell Adhesion and Commun. 3:441-450, 1996; Doherty and Walsh, Mol. Cell. Neurosci. 8:99-111, 1994; Safell et al., Neuron 18:231-242, 1997. Briefly, monolayers of control 3T3 fibroblasts and 3T3 fibroblasts that express N-cadherin were established by overnight culture of 80,000 cells in individual wells of an 8-chamber well tissue culture slide. 3000 cerebellar neurons isolated from post-natal day 3 mouse brains were cultured for 18 hours on the various monolayers in control media (SATO/2%FCS), or media supplemented with various concentrations of the cyclic peptide N—Ac-CHAVC-NH2 (SEQ ID NO:10) or a control peptide without the HAV sequence (N—Ac-CHGVC-NH2; SEQ ID NO:11). The cultures were then fixed and stained for GAP43, which specifically binds to the neurons and their neurites. The length of the longest neurite on each GAP43 positive neuron was then measured by computer assisted morphometry.

Row | Structure (SMILES) | IC50 ([1]; PC-3 cells (human prostate cancer cell line)) [µM] | inhibition of neurite outgrowth on 3T3 cells expressing N-cadherin (N-cadherin; 500 μg/mL, 18 hours) | cadherin staining of ME115 cells (Melanoma ME115 cells) | IC50 [2] [µM] | inhibition of neurite outgrowth on control 3T3 cells [3] | IC50 ([1]; PC-3 prostate cancer cell line) [µM] | inhibition of neurite outgrowth on 3T3 cells expressing N-cadherin (N-cadherin; 50 μg/mL) | melanoma cell adhesion (Melanoma ME115 cells)
1 | CC(=O)N[C@H]1CSSC[C@@H](C(N)=O)NC(=O)[C@H](C(C)C)NC(=O)CNC(=O)[C@H](Cc2c[nH]cn2)NC1=O [N—Ac—CHGVC—NH2, reference compound] | > 100 | had no effect on this process | displayed cadherin staining all over the cell membrane | > 100 | – | – | – | –
2 | CC(=O)N[C@H]1CSSC[C@@H](C(N)=O)NC(=O)[C@H](C(C)C)NC(=O)[C@H](C)NC(=O)[C@H](Cc2c[nH]cn2)NC1=O [N—Ac—CHAVC—NH2, N-Ac-Cys-His-Ala-Val-Cys-NH2] | – | completely inhibited neurite outgrowth | cadherin is localized in intracellular vesicles; also recorded: absence of cell membrane staining and the appearance of bright intracellular vesicular staining | > 100 | did not inhibit neurite outgrowth | > 100 | significantly inhibited neurite outgrowth | disrupts melanoma cell adhesion
